Measured values reported in patent US7049486B2, “Method of inducing gene expression in plant and the plant treated thereby” (priority 2000, dated 2006).

Experiments:
ArpA = molecular target: T1, ArpA (Streptomyces griseus, UniProt Q9ZN78); details: A factor/ArpA; read-out: dissociation constant (Kd value); cited from earlier work
T1 sequence (Q9ZN78 1-276): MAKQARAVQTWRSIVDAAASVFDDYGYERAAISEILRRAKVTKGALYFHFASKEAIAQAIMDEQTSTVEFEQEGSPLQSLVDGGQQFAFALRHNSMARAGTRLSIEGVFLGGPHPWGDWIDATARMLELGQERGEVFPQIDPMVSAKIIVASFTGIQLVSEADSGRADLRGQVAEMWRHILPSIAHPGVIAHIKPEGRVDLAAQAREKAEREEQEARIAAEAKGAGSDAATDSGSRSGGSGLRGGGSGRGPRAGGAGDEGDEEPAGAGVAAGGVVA

[1] = system: GUS reporter gene placed under the control of the operator BARE-3 (repressor BarA); assay: GUS reporter induction at low VB concentrations in transiently transformed cultured tobacco cells (Example 7); type: cell-based
Text: Cultured tobacco cells were provided with the characters of the repressor BarA (receptor protein for VB) and operator BARE-3 (one of the target sequences for BarA) constituting a gene expression inducing system with the actinomycete Streptomyces virginiae autogenous regulatory factor VB as the inducer by gene transfer and whether the expression of the GUS reporter gene placed under the control of the operator BARE-3 was induced was examined by administering the inducer VB in low concentrations to thus-obtained transiently transformed cultured tobacco cells.
Like in Example 6, the GUS reporter gene placed under the control of BARE-3 (Example 2, plasmid pCaMV35SD-gus) was further transferred into a cultured tobacco cell transformant clone (Example 3, No. 21 shown in FIG. 1) seemingly indicating relatively high level accumulation of the BarA protein among the clones obtained by transferring the barA gene (Example 1, binary vector pBICaMV35S-barA) into cultured tobacco BY2 cells, for transient transformation of that clone. […]

plants = assay: Toxicity to plants; details: concentration of 10 μM
Text: The actinomycete autogenous regulatory factors have no toxicity to plants.

In the case of `CC(C)CCCCC(=O)C1C(=O)OC[C@H]1CO` (stereo partly drawn) [A factor], the Kd (ArpA) is given as 0.7 nM.

For virginiae butanolide [VB], the “concentration at which gene expression under the control of BARE-3 is induced to a satisfactory extent” value [1] was 100 nM and the toxicity to plants (plants) was “no toxicity”.
